Experimental data: ChEMBL document CHEMBL4819123, “Pulchinenosides: Correlation of surface activity-cytotoxicity and hepatocyte apoptosis mechanism study” (Bioorg Med Chem Lett, 2021)

Tests used:
[1] = Hemolytic activity in rabbit erythrocytes; type: ADME, cell-based, Oryctolagus cuniculus, Erythrocyte; details: read-out: HD50 (the source's name)
L02 [2] = assay: Cytotoxicity against human L02 cells by MTT assay; type: cell-based
L02 [3] = assay: Induction of apoptosis in human L02 cells assessed as early apoptotic cells at 6 uM by annexin-V-FITC/PI staining based flow cytometry analysis (reference value: 3.81 %); type: cell-based; details: l02, 6 µM
L02 [4] = assay: Induction of apoptosis in human L02 cells assessed as late apoptotic cells at 6 uM by annexin-V-FITC/PI staining based flow cytometry analysis (reference value: 0.92 %); type: cell-based; details: l02, 6 µM
L02 [5] = assay: Induction of apoptosis in human L02 cells assessed as early apoptotic cells at 8 uM by annexin-V-FITC/PI staining based flow cytometry analysis (reference value: 3.81 %); type: cell-based; details: l02, 8 µM
L02 [6] = assay: Induction of apoptosis in human L02 cells assessed as late apoptotic cells at 8 uM by annexin-V-FITC/PI staining based flow cytometry analysis (reference value: 0.92 %); type: cell-based; details: l02, 8 µM
L02 [7] = assay: Induction of apoptosis in human L02 cells assessed as early apoptotic cells at 10 uM by annexin-V-FITC/PI staining based flow cytometry analysis (reference value: 3.81 %); type: cell-based; details: l02, 10 µM
L02 [8] = assay: Induction of apoptosis in human L02 cells assessed as late apoptotic cells at 10 uM by annexin-V-FITC/PI staining based flow cytometry analysis (reference value: 0.92 %); type: cell-based; details: l02, 10 µM
L02 [9] = assay: Induction of cell cycle arrest in human L02 cells assessed as G0/G1 phase accumulation at 6 uM by PI staining based flow cytometry analysis (reference value: 53.77 %); details: l02, 6 µM
L02 [10] = assay: Induction of cell cycle arrest in human L02 cells assessed as S phase accumulation at 6 uM by PI staining based flow cytometry analysis (reference value: 38.23 %); details: l02, 6 µM
L02 [11] = assay: Induction of cell cycle arrest in human L02 cells assessed as G2/M phase accumulation at 6 uM by PI staining based flow cytometry analysis (reference value: 8 %); details: l02, 6 µM
L02 [12] = assay: Induction of cell cycle arrest in human L02 cells assessed as G0/G1 phase accumulation at 8 uM by PI staining based flow cytometry analysis (reference value: 53.77 %); details: l02, 8 µM
L02 [13] = assay: Induction of cell cycle arrest in human L02 cells assessed as S phase accumulation at 8 uM by PI staining based flow cytometry analysis (reference value: 38.23 %); details: l02, 8 µM
L02 [14] = assay: Induction of cell cycle arrest in human L02 cells assessed as G2/M phase accumulation at 8 uM by PI staining based flow cytometry analysis (reference value: 8 %); details: l02, 8 µM
L02 [15] = assay: Induction of cell cycle arrest in human L02 cells assessed as G0/G1 phase accumulation at 10 uM by PI staining based flow cytometry analysis (reference value: 53.77 %); details: l02, 10 µM
L02 [16] = assay: Induction of cell cycle arrest in human L02 cells assessed as S phase accumulation at 10 uM by PI staining based flow cytometry analysis (reference value: 38.23 %); details: l02, 10 µM
L02 [17] = assay: Induction of cell cycle arrest in human L02 cells assessed as G2/M phase accumulation at 10 uM by PI staining based flow cytometry analysis (reference value: 8 %); details: l02, 10 µM
L02 [18] = assay: Cytotoxicity against human L02 cells assessed as increase in LDH leakage by LDH assay; type: cell-based
[19] = Oil-water partition coefficient, logP of compound; type: physicochemical
L02 [20] = assay: Induction of apoptosis in human L02 cells assessed as decrease in ratio of Bcl-2/Bax at 8 to 12 ug/ml measured after 24 hrs by Western blot analysis; type: cell-based; details: l02, 24 h, dose 8-12 µg/ml
L02 [21] = assay: Induction of apoptosis in human L02 cells assessed as upregulation of FAS expression at 8 to 12 ug/ml measured after 24 hrs by Western blot analysis; type: cell-based; details: l02, 24 h, dose 8-12 µg/ml
L02 [22] = assay: Induction of apoptosis in human L02 cells assessed as decrease in caspase 8 level at 8 to 12 ug/ml measured after 24 hrs by Western blot analysis; type: cell-based; details: l02, 24 h, dose 8-12 µg/ml
L02 [23] = assay: Induction of apoptosis in human L02 cells assessed as decrease in caspase 9 level at 8 to 12 ug/ml measured after 24 hrs by Western blot analysis; type: cell-based; details: l02, 24 h, dose 8-12 µg/ml
L02 [24] = assay: Induction of apoptosis in human L02 cells assessed as increase in cleaved caspase 8 level at 8 to 12 ug/ml measured after 24 hrs by Western blot analysis; type: cell-based; details: l02, 24 h, dose 8-12 µg/ml
L02 [25] = assay: Induction of apoptosis in human L02 cells assessed as early apoptotic cells at 18 uM by annexin-V-FITC/PI staining based flow cytometry analysis (reference value: 3.81 %); type: cell-based; details: l02, 18 µM
L02 [26] = assay: Induction of apoptosis in human L02 cells assessed as late apoptotic cells at 18 uM by annexin-V-FITC/PI staining based flow cytometry analysis (reference value: 0.92 %); type: cell-based; details: l02, 18 µM
L02 [27] = assay: Induction of apoptosis in human L02 cells assessed as early apoptotic cells at 24 uM by annexin-V-FITC/PI staining based flow cytometry analysis (reference value: 3.81 %); type: cell-based; details: l02, 24 µM
L02 [28] = assay: Induction of apoptosis in human L02 cells assessed as late apoptotic cells at 24 uM by annexin-V-FITC/PI staining based flow cytometry analysis (reference value: 0.92 %); type: cell-based; details: l02, 24 µM
L02 [29] = assay: Induction of apoptosis in human L02 cells assessed as early apoptotic cells at 26 uM by annexin-V-FITC/PI staining based flow cytometry analysis (reference value: 3.81 %); type: cell-based; details: l02, 26 µM
L02 [30] = assay: Induction of apoptosis in human L02 cells assessed as late apoptotic cells at 26 uM by annexin-V-FITC/PI staining based flow cytometry analysis (reference value: 0.92 %); type: cell-based; details: l02, 26 µM
L02 [31] = assay: Induction of cell cycle arrest in human L02 cells assessed as G0/G1 phase accumulation at 18 uM by PI staining based flow cytometry analysis (reference value: 53.77 %); details: l02, 18 µM
L02 [32] = assay: Induction of cell cycle arrest in human L02 cells assessed as S phase accumulation at 18 uM by PI staining based flow cytometry analysis (reference value: 38.23 %); details: l02, 18 µM
L02 [33] = assay: Induction of cell cycle arrest in human L02 cells assessed as G2/M phase accumulation at 18 uM by PI staining based flow cytometry analysis (reference value: 8 %); details: l02, 18 µM
L02 [34] = assay: Induction of cell cycle arrest in human L02 cells assessed as G0/G1 phase accumulation at 24 uM by PI staining based flow cytometry analysis (reference value: 53.77 %); details: l02, 24 µM
L02 [35] = assay: Induction of cell cycle arrest in human L02 cells assessed as S phase accumulation at 24 uM by PI staining based flow cytometry analysis (reference value: 38.23 %); details: l02, 24 µM
L02 [36] = assay: Induction of cell cycle arrest in human L02 cells assessed as G2/M phase accumulation at 24 uM by PI staining based flow cytometry analysis (reference value: 8 %); details: l02, 24 µM
L02 [37] = assay: Induction of cell cycle arrest in human L02 cells assessed as G0/G1 phase accumulation at 26 uM by PI staining based flow cytometry analysis (reference value: 53.77 %); details: l02, 26 µM
L02 [38] = assay: Induction of cell cycle arrest in human L02 cells assessed as S phase accumulation at 26 uM by PI staining based flow cytometry analysis (reference value: 38.23 %); details: l02, 26 µM
L02 [39] = assay: Induction of cell cycle arrest in human L02 cells assessed as G2/M phase accumulation at 26 uM by PI staining based flow cytometry analysis (reference value: 8 %); details: l02, 26 µM

Row | SMILES | HC50 [1] | IC50 (L02 [2]) | Activity (L02 [3]) | Activity (L02 [18]) | logP [19] | Activity (L02 [25]) | Activity (L02 [26]) | Activity (L02 [27]) | Activity (L02 [28]) | Activity (L02 [29]) | Activity (L02 [30]) | Activity (L02 [31]) | Activity (L02 [32]) | Activity (L02 [33]) | Activity (L02 [34]) | Activity (L02 [35]) | Activity (L02 [36]) | Activity (L02 [37]) | Activity (L02 [38]) | Activity (L02 [39]) | further results
1 | C[C@@H]1O[C@@H](O[C@H]2[C@H](O[C@H]3CC[C@]4(C)[C@H]5CC=C6[C@@H]7CC(C)(C)CC[C@]7(C(=O)O)CC[C@@]6(C)[C@]5(C)CC[C@H]4C3(C)C)OC[C@H](O)[C@@H]2O[C@@H]2O[C@H](CO)[C@@H](O)[C@H](O)[C@H]2O)[C@H](O)[C@H](O)[C@H]1O | 3.6 µM | 7.49 µM | 6.87% | Toxic | 0.318 | – | – | – | – | – | – | – | – | – | – | – | – | – | – | – | Activity (L02 [4]): 2.91%; Activity (L02 [5]): 13.4%; Activity (L02 [6]): 27.9%; Activity (L02 [7]): 2.79%; Activity (L02 [8]): 89.3%; Activity (L02 [9]): 58.57%; Activity (L02 [10]): 33.43%; Activity (L02 [11]): 8%; Activity (L02 [12]): 56.86%; Activity (L02 [13]): 38.34%; Activity (L02 [14]): 4.8%; Activity (L02 [15]): 50.68%; Activity (L02 [16]): 47.32%; Activity (L02 [17]): 2%
2 | C[C@H]1O[C@@H](O[C@@H]2[C@@H](O)[C@@H](CO)O[C@H](O[C@@H]3[C@H](O)[C@@H](O)[C@H](O[C@H]4CC[C@]5(C)[C@H]6CC=C7[C@@H]8CC(C)(C)CC[C@]8(C(=O)O)CC[C@@]7(C)[C@]6(C)CC[C@H]5C4(C)C)O[C@@H]3CO)[C@@H]2O)[C@H](O[C@@H]2OC[C@@H](O)[C@@H](O)[C@@H]2O)[C@@H](O)[C@@H]1O | 2.49 µM | 9.57 µM | 7.62% | Toxic | -0.0114 | – | – | – | – | – | – | – | – | – | – | – | – | – | – | – | Activity (L02 [4]): 7.91%; Activity (L02 [5]): 23.4%; Activity (L02 [6]): 54.1%; Activity (L02 [7]): 1.92%; Activity (L02 [8]): 92.2%; Activity (L02 [9]): 57.44%; Activity (L02 [10]): 34.56%; Activity (L02 [11]): 8%; Activity (L02 [12]): 60.25%; Activity (L02 [13]): 35.95%; Activity (L02 [14]): 3.8%; Activity (L02 [15]): 67.43%; Activity (L02 [16]): 32.14%; Activity (L02 [17]): 0.45%; Activity (L02 [20]): Toxic; Activity (L02 [21]): Toxic; Activity (L02 [22]): Toxic; Activity (L02 [23]): Toxic; Activity (L02 [24]): Toxic
3 | C[C@@H]1O[C@@H](O[C@H]2[C@H](O[C@H]3CC[C@]4(C)[C@H]5CC=C6[C@@H]7CC(C)(C)CC[C@]7(C(=O)O)CC[C@@]6(C)[C@]5(C)CC[C@H]4C3(C)C)OC[C@H](O)[C@@H]2O)[C@H](O)[C@H](O)[C@H]1O | 7.46 µM | 23.1 µM | – | Toxic | 0.244 | 8.4% | 3.82% | 12.1% | 6.93% | 54.9% | 8.41% | 69.09% | 30.6% | 0.31% | 64% | 36.28% | 1.72% | 51.19% | 44.08% | 4.73% | –
4 | C[C@@H]1O[C@@H](O[C@H]2[C@H](O[C@H]3CC[C@@]4(C)[C@@H](CC[C@]5(C)[C@@H]4CC=C4[C@@H]6CC(C)(C)CC[C@]6(C(=O)O)CC[C@]45C)[C@]3(C)CO)OC[C@H](O)[C@@H]2O)[C@H](O)[C@H](O)[C@H]1O [ALPHA-HEDERIN] | 9.04 µM | 21 µM | – | Toxic | 0.0672 | 16.84% | 8.18% | 17% | 15.5% | 1.98% | 94.2% | 61% | 31% | 8% | 59.52% | 32.48% | 8% | 52.42% | 40.88% | 6.72% | –
5 | C[C@@H]1O[C@@H](O[C@H]2[C@H](O[C@H]3CC[C@@]4(C)[C@@H](CC[C@]5(C)[C@@H]4CC=C4[C@@H]6CC(C)(C)CC[C@]6(C(=O)O)CC[C@]45C)[C@]3(C)CO)OC[C@H](O[C@@H]3O[C@H](CO)[C@@H](O)[C@H](O)[C@H]3O)[C@@H]2O)[C@H](O)[C@H](O)[C@H]1O [HEDERACOLCHISIDE A] | 6.83 µM | 21.1 µM | – | Toxic | 0.115 | 13.7% | 4.61% | 15.9% | 10.3% | 2.2% | 94.9% | 58.3% | 40.23% | 1.47% | 7.96% | 30.41% | 61.63% | 61.72% | 30.28% | 8% | –
